Starred links: 1 amine or outer side, 2 acyl side, 3 side chain; linkers in the order of their positions; H or OH if unused. Non-standard residues stand in square brackets, D forms with d. Residues, ends and D or L forms follow the SMILES beside them. *: point of attachment. Dolaproine = CO[C@@H]([C@@H]1CCCN1)[C@@H](C)C(=O)O; Dil = CC[C@H](C)[C@H](NC)[C@@H](CC(=O)O)OC; PABC = O=C(OCc1ccc(N[*:1])cc1)[*:2]; X1 = O=C(CCCC(=O)*)ON1C(=O)CCC1=O; X2 = C[C@@H](N*)[C@@H](O)c1ccccc1; Cit = NC(=O)NCCC[C@H](N)C(=O)O; NMeV = CN[C@H](C(=O)O)C(C)C
System: PC-3M-luc-C6 human prostate carcinoma
Assay: Intracardially implanted PC-3M-Luc-C6 metastatic model, BLI and survival (Example 6)
Type: in vivo, Mouse
Conditions: for Day 26 T/C: BLI total bone signal; for tumor growth delay: evaluation size 9.0E+07 p/s
Protocol: The purpose of this study was to evaluate the efficacy and overall impact of Bicycle toxin conjugate BT5528 against established intracardially implanted PC-3M-luc-C6 human prostate carcinoma in male nude mice, with treatment regimens starting at different disease stages (Day 14 and Day 21). Response was monitored using bioluminescence imaging (BLI) on Days 14, 21, 28, 35, and 42 coupled with traditional survival endpoints.
BT5528: • Formulation pH: 5.4 • High Dose Formulation: 0.15 mg/mL • Vehicle: 50 mM Acetate, 10% Sucrose • Storage: 4° C. • Dose volume: 0.01 mL/g
All procedures carried out in this experiment were conducted in compliance with the applicable laws, regulations and guidelines of the National Institutes of Health (NIH). • Species: Mouse • Strain: Envigo nude mice (Hsd:Athymic Nude-Foxn1^nu) • Age at implant: 5-6 weeks • Sex: male • Min weight (D14): 24.9 g • Mean weight (D14): 28.4 g (range of group means, 27.7-28.8 g)
Animals were anesthetized with an IP injection of a ketamine (100 mg/kg)/xylazine (6 mg/kg) cocktail. When the animals were non-responsive (determined by a toe pinch test), 100 μl of cell suspension (3.0 E+06 cells) were drawn into a 1 ml syringe and a 27×½″ gauge needle was then attached. A small air bubble is created in the plunger side of the syringe before injection. The needle was then inserted slowly through the center of the second intercostal space, approximately 3 mm to the left of the sternum and aimed centrally until a continuous pulsation of bright red oxygenated blood into the needle hub was observed. 100 μl of cell suspension was then slowly injected over 5 seconds. A fresh needle and syringe were used for each animal.
Animals were injected with firefly D-luciferin (150 mg/kg) by IP administration according to body weight (0.2 ml/20 g). The success of the intracardiac injections was verified by a one minute bioluminescence scan using large binning (high sensitivity) of the CCD chip immediately after the injection. Mice with signals from the entire body, from snout to base of the tail, were deemed to have been successfully injected, while mice with signals localized to the chest area only, or not fully extending into the snout, were triaged from the study immediately.
All mice were sorted into study groups based on body weight and BLI-derived estimation of tumor burden.
BLI was performed using an IVIS S5 Lumina system (PerkinElmer, Waltham, Mass.). Animals were imaged five at a time under 1-2% isoflurane gas anesthesia. Each mouse was injected IP with 150 mg/kg (15 mg/ml) D-luciferin and imaged in the prone then supine positions 10 minutes after the injection. Large binning of the CCD chip was used, and the exposure time was adjusted (10 seconds to 2 minutes) to obtain at least several hundred counts per image and to avoid saturation of the CCD chip. BLI images were collected on Days 0, 7, 14, 21, 28, 35, 42, 49, 56 and 63 post-implant.
Images were analyzed using Living Image 4.7.1 (PerkinElmer, MA) software. Each unique tissue signal was circled manually and labeled based on anatomical site as mandible or hind limb for both prone and supine images. For limbs, the signal was also designated as being from the right or left side of the mouse.
Signal flux (photons/sec) were calculated for each unique metastatic signal and exported for all ROIs to facilitate analyses between groups.
Study was terminated on Day 78. All BLI endpoint calculations were derived from total bone values. The BLI background signal for this study was measured at 1.20 E+05 p/s. An animal was credited with a partial regression if the BLI signal fell below half the staging BLI signal level. Similarly, a complete regression (CR) was credited if the BLI signal fell below the background level, and a tumor-free survivor was if the BLI signal was below background on last day of imaging (Day 63), with no evidence of disease at necropsy. […]

[1] = 1.5 mg/kg IV Q7D × 4 starting Day 14
[2] = 1.5 mg/kg IV Q7D × 4 starting Day 21

For CC[C@H](C)[C@@H]([C@@H](CC(=O)N1CCC[C@H]1[C@H](OC)[C@@H](C)C(=O)N[C@H](C)[C@@H](O)c1ccccc1)OC)N(C)C(=O)[C@@H](NC(=O)[C@H](C(C)C)N(C)C(=O)OCc1ccc(NC(=O)[C@H](CCCNC(N)=O)NC(=O)[C@@H](NC(=O)CCCC(=O)ON2C(=O)CCC2=O)C(C)C)cc1)C(C)C [BT5528] (X1-V[Cit][PABC][NMeV]V[Dil][Dolaproine]-X2), the “incidence of partial regressions” value [1] was 60%, the “increased lifespan (ILS)” value [1] was 177.3% and the “Day 26 T/C” value [1] was 1%. For the same compound, the tumor growth delay [1] was over 35.1 days, the “increased lifespan (ILS)” value [2] was 145.5% and the “less incidence of partial regressions than with Day 14 start” value [2] was 40%. The “Day 26 T/C” value [2] was 3.4%, the tumor growth delay [2] was over 35.1 days and the “bone tumor cell burden and survival” value (4 weekly treatment cycles) was “reduced the bone tumor cell burden significantly and extended the survival of the mice”. For the same compound, the “mice at the end of the study (D78) without observable (macroscopic) disease” value (mouse, in vivo) was 1 mouse.

From patent US20220184222A1, “BICYCLE TOXIN CONJUGATES AND USES THEREOF” (BicycleTx Limited, priority 2019, published 2022)
